Results reported in the supplement of paper PMC10627819.

Legend:
[1] = test system: B. subtilis 168; test: fitness (endpoint OD595 vs no drug) (fraction); higher = more growth
Summary of the method: (§1)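 Fitness was defined as the optical density at the transition into stationary phase relative to the robust mean of no-drug control wells. Values were capped at 1. Cultures were started at OD595 0.01 in 384-well plates (30 µl, or 55 µl for S. pneumoniae) in TSB, LB Lennox or CY at 37 °C. OD595 was recorded every 30 min over 14 h, with the first reading subtracted as background.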

[2] = test system: S. aureus DSM 20231; test: as above
Summary of the method: as §1

[3] = test system: S. pneumoniae D39V; test: as above
Summary of the method: as §1

[4] = test system: B. subtilis 168; test: Bliss interaction score (quartile over a dose matrix) (fitness difference); higher = more antagonism (negative = synergy)
Summary of the method: (§2)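 Fitness here means normalised growth, inferred for single drugs from the combination data. Growth was OD595 at entry into stationary phase, divided by the plate's robust no-drug mean and capped at 1. The Bliss score is observed minus expected fitness, with the expectation being the product, and its quartiles span technical, biological and donor/recipient replicates.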

[5] = test system: S. aureus DSM 20231; test: as above
Summary of the method: as §2

[6] = test system: S. aureus Newman; test: as above
Summary of the method: as §2

[7] = test system: S. pneumoniae D39V; test: as above
Summary of the method: as §2

[8] = test system: S. aureus Newman; test: fitness (endpoint OD595 vs no drug) (fraction); higher = more growth
Summary of the method: as §1
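Throughout, for Bliss interaction score (quartile over a dose matrix): first quartile when negative (synergy) and third quartile when positive (antagonism).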

CC(=O)NC[C@H]1CN(c2ccc(N3CCOCC3)c(F)c2)C(=O)O1 [Linezolid] + Cc1onc(-c2ccccc2)c1C(=O)N[C@@H]1C(=O)N2[C@@H]1SC(C)(C)[C@@H]2C(=O)O [Oxacillin]
one replicate
Settings | fitness
[1], first compound 0.0625 µg/mL, partner 0.0078 µg/mL | 0.913
[1], first compound 0.0625 µg/mL, partner 0.0155 µg/mL | 0.809
[1], first compound 0.0625 µg/mL, partner 0.031 µg/mL | 0.81
[1], first compound 0.125 µg/mL, partner 0.0078 µg/mL | 0.594
[1], first compound 0.125 µg/mL, partner 0.0155 µg/mL | 0.553
[1], first compound 0.125 µg/mL, partner 0.031 µg/mL | 0.529
[1], first compound 0.125 µg/mL, partner 0.075 µg/mL | 0.611
[1], first compound 0.125 µg/mL, partner 0.15 µg/mL | 0.0387
[1], first compound 0.125 µg/mL, partner 0.3 µg/mL | 0.0501
[1], first compound 0.25 µg/mL, partner 0.0078 µg/mL | 0.0705
[1], first compound 0.25 µg/mL, partner 0.0155 µg/mL | 0.0604
[1], first compound 0.25 µg/mL, partner 0.031 µg/mL | 0.0611
[1], first compound 0.25 µg/mL, partner 0.075 µg/mL | 0.241
[1], first compound 0.25 µg/mL, partner 0.15 µg/mL | 0.0531
[1], first compound 0.25 µg/mL, partner 0.3 µg/mL | 0.0536
[1], first compound 0.5 µg/mL, partner 0.075 µg/mL | 0.0447
[1], first compound 0.5 µg/mL, partner 0.15 µg/mL | 0.0563
[1], first compound 0.5 µg/mL, partner 0.3 µg/mL | 0.0594
[2], first compound 1 µg/mL, partner 0.0156 µg/mL | 0.0486
[2], first compound 1 µg/mL, partner 0.0312 µg/mL | 0.0427
[2], first compound 1 µg/mL, partner 0.0625 µg/mL | 0.0557

Settings | fitness
[1], first compound 0.125 µg/mL, partner 0.002 µg/mL | 0.567
[1], first compound 0.125 µg/mL, partner 0.004 µg/mL | 0.513
[1], first compound 0.125 µg/mL, partner 0.008 µg/mL | 0.515
[1], first compound 0.25 µg/mL, partner 0.002 µg/mL | 0.112
[1], first compound 0.25 µg/mL, partner 0.004 µg/mL | 0.108
[1], first compound 0.25 µg/mL, partner 0.008 µg/mL | 0.102
[1], first compound 0.5 µg/mL, partner 0.002 µg/mL | 0.0413
[1], first compound 0.5 µg/mL, partner 0.004 µg/mL | 0.0471
[1], first compound 0.5 µg/mL, partner 0.008 µg/mL | 0.0549
[2], first compound 0.125 µg/mL, partner 0.0156 µg/mL | 0.791
[2], first compound 0.125 µg/mL, partner 0.0312 µg/mL | 0.665
[2], first compound 0.125 µg/mL, partner 0.0625 µg/mL | 0.52
[2], first compound 0.25 µg/mL, partner 0.0156 µg/mL | 0.52
[2], first compound 0.25 µg/mL, partner 0.0312 µg/mL | 0.501
[2], first compound 0.25 µg/mL, partner 0.0625 µg/mL | 0.415
[2], first compound 0.5 µg/mL, partner 0.0156 µg/mL | 0.21
[2], first compound 0.5 µg/mL, partner 0.0312 µg/mL | 0.188
[2], first compound 0.5 µg/mL, partner 0.0625 µg/mL | 0.156
[3], first compound 0.105 µg/mL, partner 0.01 µg/mL | 0.917
[3], first compound 0.105 µg/mL, partner 0.02 µg/mL | 0.872
[3], first compound 0.105 µg/mL, partner 0.04 µg/mL | 0.42
[3], first compound 0.2 µg/mL, partner 0.01 µg/mL | 0.78
[3], first compound 0.2 µg/mL, partner 0.02 µg/mL | 0.764
[3], first compound 0.2 µg/mL, partner 0.04 µg/mL | 0.594
[3], first compound 0.21 µg/mL, partner 0.01 µg/mL | 0.791
[3], first compound 0.21 µg/mL, partner 0.02 µg/mL | 0.704
[3], first compound 0.21 µg/mL, partner 0.04 µg/mL | 0.382
[3], first compound 0.4 µg/mL, partner 0.01 µg/mL | 0.623
[3], first compound 0.4 µg/mL, partner 0.02 µg/mL | 0.609
[3], first compound 0.4 µg/mL, partner 0.04 µg/mL | 0.431
[3], first compound 0.42 µg/mL, partner 0.01 µg/mL | 0.63
[3], first compound 0.42 µg/mL, partner 0.02 µg/mL | 0.564
[3], first compound 0.42 µg/mL, partner 0.04 µg/mL | 0.175
[3], first compound 0.8 µg/mL, partner 0.04 µg/mL | 0.218

Settings | Bliss interaction score
[4] | 0.0403
[5] | -0.0365
[6] | -0.0461
[7] | 0.136

CN[C@@H]1[C@H](O[C@H]2[C@H](O[C@H]3[C@H](O)[C@@H](O)[C@H](N=C(N)N)[C@@H](O)[C@@H]3N=C(N)N)O[C@@H](C)[C@]2(O)C=O)O[C@@H](CO)[C@H](O)[C@H]1O [Streptomycin] + CC1=C\[C@@H](O)CC(=O)Cc2nc(co2)C(=O)N2CCC=C2C(=O)O[C@H](C(C)C)[C@H](C)/C=C/C(=O)NC\C=C\1 [Virginiamycin M1]
fitness
Settings | first compound 1 µg/mL | first compound 2 µg/mL | first compound 4 µg/mL | first compound 8 µg/mL
[1], partner 0.0625 µg/mL | – | 0.962 | – | 0.0325
[1], partner 0.125 µg/mL | – | 0.966 | 0.429 | 0.0265
[1], partner 0.25 µg/mL | – | ≥ 1 | 0.453 | 0.0334
[3], partner 0.5 µg/mL | – | 0.977 | 0.998 | 0.931
[3], partner 1 µg/mL | – | 0.955 | 0.99 | 0.884
[3], partner 2 µg/mL | – | 0.917 | 0.944 | 0.921
[8], partner 0.0625 µg/mL | 1 | 0.879 | – | –
[8], partner 0.125 µg/mL | 0.996 | 0.891 | – | –
[8], partner 0.25 µg/mL | 0.978 | 0.916 | – | –

fitness, one replicate
Settings | partner 0.15 µg/mL | partner 0.3 µg/mL | partner 0.5 µg/mL | partner 1 µg/mL | partner 2 µg/mL
[3], first compound 2 µg/mL | 0.928 | 0.912 | – | – | –
[3], first compound 4 µg/mL | 0.925 | 0.929 | – | – | –
[3], first compound 8 µg/mL | 0.917 | 0.941 | – | – | –
[3], first compound 16 µg/mL | – | – | 0.866 | 0.844 | 0.776
[8], first compound 2 µg/mL | – | – | 0.804 | 0.911 | 0.812
[8], first compound 4 µg/mL | – | – | 0.865 | 0.86 | 0.82
[8], first compound 8 µg/mL | – | – | 0.811 | 0.845 | 0.708

Settings | Bliss interaction score
[4] | -0.124
[5] | -0.161
[6] | 0.0782
[7] | 0.0533

CC(=O)NC[C@H]1CN(c2ccc(N3CCOCC3)c(F)c2)C(=O)O1 [Linezolid] + COc1ccc(C[C@H](N)C(=O)N[C@H]2[C@@H](O)[C@H](n3cnc4c(N(C)C)ncnc43)O[C@@H]2CO)cc1 [Puromycin]
one replicate
Settings | fitness
[1], first compound 0.0625 µg/mL, partner 0.39 µg/mL | 0.885
[1], first compound 0.0625 µg/mL, partner 0.78 µg/mL | 0.885
[1], first compound 0.0625 µg/mL, partner 1.56 µg/mL | 0.904
[2], first compound 0.125 µg/mL, partner 3.12 µg/mL | 0.824
[2], first compound 0.125 µg/mL, partner 6.24 µg/mL | 0.287
[2], first compound 0.25 µg/mL, partner 3.12 µg/mL | 0.344
[2], first compound 0.25 µg/mL, partner 6.24 µg/mL | 0.118
[2], first compound 0.5 µg/mL, partner 3.12 µg/mL | 0.0742
[2], first compound 0.5 µg/mL, partner 6.24 µg/mL | 0.0788
[2], first compound 1 µg/mL, partner 0.39 µg/mL | 0.0293
[2], first compound 1 µg/mL, partner 0.78 µg/mL | 0.0469
[2], first compound 1 µg/mL, partner 1.56 µg/mL | 0.0437
[3], first compound 0.2 µg/mL, partner 1 µg/mL | 0.712
[3], first compound 0.2 µg/mL, partner 2 µg/mL | 0.742
[3], first compound 0.2 µg/mL, partner 4 µg/mL | 0.608
[3], first compound 0.4 µg/mL, partner 1 µg/mL | 0.564
[3], first compound 0.4 µg/mL, partner 2 µg/mL | 0.599
[3], first compound 0.4 µg/mL, partner 4 µg/mL | 0.404
[3], first compound 0.8 µg/mL, partner 1 µg/mL | 0.181
[3], first compound 0.8 µg/mL, partner 2 µg/mL | 0.215
[3], first compound 0.8 µg/mL, partner 4 µg/mL | 0.15

fitness
Settings | first compound 0.105 µg/mL | first compound 0.125 µg/mL | first compound 0.21 µg/mL | first compound 0.25 µg/mL | first compound 0.42 µg/mL | first compound 0.5 µg/mL
[1], partner 0.39 µg/mL | – | 0.55 | – | 0.0916 | – | 0.0287
[1], partner 0.78 µg/mL | – | 0.569 | – | 0.118 | – | 0.0397
[1], partner 1.56 µg/mL | – | 0.599 | – | 0.128 | – | 0.0443
[2], partner 0.39 µg/mL | – | 0.91 | – | 0.595 | – | 0.193
[2], partner 0.78 µg/mL | – | 0.849 | – | 0.591 | – | 0.209
[2], partner 1.56 µg/mL | – | 0.944 | – | 0.578 | – | 0.152
[3], partner 1 µg/mL | 0.833 | – | 0.746 | – | 0.606 | –
[3], partner 2 µg/mL | 0.788 | – | 0.685 | – | 0.323 | –
[3], partner 4 µg/mL | 0.644 | – | 0.446 | – | 0.233 | –

Settings | Bliss interaction score
[4] | 0.075
[5] | -0.0587
[6] | -0.0605
[7] | -0.132
